In BindingDB's records for doi:10.1021/jm00087a005 (Nova Pharmaceutical, 1992):

Columns and labels:
Experiment in all cases: Potency at the sigma binding site was determined in radioligand
[1] = target: sigma receptor, [3H]-(+)-3-PPP site (Cavia porcellus)
[2] = target: sigma receptor, [3H]DTG site (Cavia porcellus)
[3] = target: sigma receptor, [3H]-(+)-3-PPP site (Cavia porcellus); remark: listed apart in the source

Row | IC50 [1] | IC50 [2] | IC50 [3] | Compound
1 | – | 0.119 µM | 0.232 µM | O=c1cc(-c2cccs2)oc2ccc(OCCCCCCN3CCC(O)CC3)cc12
2 | – | 0.091 µM | 0.1 µM | CCN(CC)CCCCCCOc1ccc2oc(-c3ccccc3)cc(=O)c2c1
3 | 0.075 µM | 0.052 µM | – | CN(CCCCCCOc1ccc2oc(-c3ccccc3)cc(=O)c2c1)Cc1ccccc1
4 | 0.102 µM | 0.164 µM | – | CCOC(=O)C1CCN(CCCCCCOc2ccc3oc(-c4ccccc4)cc(=O)c3c2)CC1
5 | – | 0.125 µM | 0.091 µM | O=c1cc(-c2ccccc2)oc2cccc(OCCCN3CCC(O)CC3)c12
6 | – | 0.036 µM | 0.065 µM | O=c1cc(-c2ccccc2)oc2cccc(OCCCCCCCN3CCC(O)CC3)c12
7 | – | 0.016 µM | 0.019 µM | O=c1cc(-c2ccccc2)oc2cc(OCCCCCCCN3CCC(O)CC3)ccc12
8 | 0.132 µM | 0.095 µM | – | O=c1cc(-c2ccc(F)cc2)oc2ccc(OCCCCCCN3CCC(O)CC3)cc12
9 | 0.038 µM | 0.026 µM | – | O=c1cc(C2CCCC2)oc2ccc(OCCCCCCN3CCCCC3)cc12
10 | 0.111 µM | 0.076 µM | – | COc1cccc(-c2cc(=O)c3cc(OCCCCCCN4CCC(O)CC4)ccc3o2)c1
11 | 0.077 µM | 0.086 µM | – | O=c1cc(-c2ccccc2)oc2ccc(OCCCCCCN3CCCC(O)C3)cc12 (stereo not given)
12 | 14.2 µM | – | – | O=c1cc(-c2ccccc2)oc2ccc(OCCCCCCN3CCNCC3c3ncccn3)cc12 (stereo not given)
13 | 0.21 µM | 0.194 µM | – | O=c1cc(-c2cccnc2)oc2ccc(OCCCCCCN3CCC(O)CC3)cc12
14 | 0.341 µM | 0.297 µM | – | CN(C)CCCCCCCCCCOc1ccc2oc(-c3ccccc3)cc(=O)c2c1
15 | 0.055 µM | 0.051 µM | – | O=c1cc(C2CCCC2)oc2ccc(OCCCCCCN3CCC(O)CC3)cc12
16 | – | 0.058 µM | – | O=c1cc(-c2ccccc2)oc2cccc(OCCCCN3CCC(O)CC3)c12

Second part, the molecule before the results:

Row | Compound | IC50 [1] | IC50 [2] | IC50 [3]
17 | O=c1cc(C2CCCCC2)oc2ccc(OCCCCCCN3CCCCC3)cc12 | 0.032 µM | 0.055 µM | –
18 | O=c1cc(-c2cccnc2)oc2ccc(OCCCCCCN3CCCCC3)cc12 | 0.192 µM | 0.119 µM | –
19 | O=c1cc(-c2ccc(Cl)cc2)oc2ccc(OCCCCCCN3CCC(O)CC3)cc12 | 0.164 µM | 0.195 µM | –
20 | O=c1cc(-c2ccncc2)oc2ccc(OCCCCCCN3CCC(O)CC3)cc12 | – | 0.159 µM | 0.308 µM
21 | O=c1cc(-c2ccccc2Cl)oc2ccc(OCCCCCCN3CCC(O)CC3)cc12 | – | 0.047 µM | 0.029 µM
22 | O=c1cc(-c2ccccc2)oc2cc(OCCCCCCN3CCC(O)CC3)ccc12 | 0.07 µM | 0.045 µM | –
23 | O=c1cc(-c2ccccc2)oc2ccc(OCCCCCCN3CCC(O)CC3)cc12 | – | 0.1 µM | 0.121 µM
24 | CC(C)Cc1cc(=O)c2cc(OCCCCCN3CCC(O)CC3)ccc2o1 | 0.261 µM | 0.139 µM | –
25 | COc1ccc(-c2cc(=O)c3cc(OCCCCCCN4CCC(O)CC4)ccc3o2)cc1 | 0.332 µM | 0.254 µM | –
26 | O=c1cc(-c2ccccc2)oc2ccc(OCCCCCCN3CCCCC3)cc12 | 0.054 µM | 0.101 µM | –
27 | CN(C)CCOc1ccc2oc(-c3ccccc3)cc(=O)c2c1 | 0.04 µM | 0.59 µM | –
28 | O=c1cc(C2CCCCC2)oc2ccc(OCCCCCCN3CCC(O)CC3)cc12 | 0.046 µM | 0.088 µM | –
29 | CN(C)CCCCCCOc1ccc2oc(-c3ccccc3)cc(=O)c2c1 | – | 0.432 µM | 0.335 µM
30 | CN(C)CCCCOc1ccc2oc(-c3ccccc3)cc(=O)c2c1 | 0.4 µM | 0.72 µM | –
31 | O=c1cc(C2CCCCC2)oc2ccc(OCCCCCCN3CCOCC3)cc12 | 0.095 µM | 0.239 µM | –
32 | CN(C)CCCCCCCCCOc1ccc2oc(-c3ccccc3)cc(=O)c2c1 | 0.202 µM | 0.334 µM | –
33 | CN(C)CCCCCCCCOc1ccc2oc(-c3ccccc3)cc(=O)c2c1 | 0.143 µM | 0.227 µM | –
34 | O=c1cc(-c2ccccc2)oc2ccc(OCCCN3CCC(O)CC3)cc12 | 0.123 µM | 0.13 µM | –
35 | COc1ccc(-c2cc(=O)c3cc(OCCCCCN4CCC(O)CC4)ccc3o2)cc1 | 0.6 µM | 0.493 µM | –
36 | CN(C)CCCCCCCOc1ccc2oc(-c3ccccc3)cc(=O)c2c1 | 0.188 µM | 0.165 µM | –
